Measurements as given in PMC8196580, “Identification of Kaurane-Type Diterpenes as Inhibitors of Leishmania Pteridine Reductase I” (Molecules, 2021).
Like-named read-outs stand apart in the source and are kept apart here.

Columns and labels:
L. major [1] = experiment: ChEMBL dataset of pIC50 values against L. major used for the RF model (Table S1); assay type: cell-based, Leishmania major; note: call rule not given here
L. major [2] = test system: L. major; design: method as in ChEMBL; details: ref ChEMBL, cited from earlier work
[3] = Active/Inactive class assigned to ChemBL structures for Random forest model construction (Table S1)
[4] = ChemBL structures with pIC50 values used for Random forest model construction (Table S1)
[5] = Active/Inactive class assigned to the ChEMBL pIC50 value for Random forest model construction, ref ChEMBL
[6] = ChemBL structures with pIC50 values used for Random forest model construction, L. major

Structure (SMILES)	Outcome (L. major [1]; [3])	pIC50 Value (L. major [2]; [4])	Outcome (L. major [1]; [5])	pIC50 Value (L. major [2]; [6])
CCOC(=O)C1=C(C)NC(=O)NC1c1ccccc1 (stereo not drawn) [CHEMBL507603]	Active	5.42	–	–
COc1cc(OC)c2c(C)[n+](-c3ccc4scnc4c3)c(C)cc2c1.F[B-](F)(F)F [CHEMBL515117]	–	–	Inactive	4.00
O=C(c1ccc(Cl)cc1)N1CCN(c2nnc(-c3ccc([N+](=O)[O-])s3)s2)CC1 [CHEMBL515851]	–	–	Inactive	4.62
O=C(c1ccc(Cl)s1)N1CCN(c2nnc(-c3ccc([N+](=O)[O-])o3)s2)CC1 [CHEMBL516307]	–	–	Inactive	4.93
COc1cc(OC)c2c(C)[n+](-c3cccc4cc5ccccc5cc34)c(C)cc2c1.O=C([O-])C(F)(F)F [CHEMBL516450]	Active	5.73	–	–
COc1cc(OC)c2c(C)[n+](-c3ccc(C(C)(C)C)cc3)c(C)cc2c1.F[B-](F)(F)F [CHEMBL516763]	Active	5.57	–	–
Cc1cccc2oc(=O)c3c(c12)O[C@H](C)[C@@]3(C)CC(=O)[C@@H]1OC1(C)C [CHEMBL517042]	–	–	Inactive	4.87
CCCc1ccc(-[n+]2c(C)cc3cc(OC)cc(OC)c3c2C)cc1.F[B-](F)(F)F [CHEMBL517690]	Active	5.79	–	–
O=C(c1ccc(Br)s1)N1CCN(c2nnc(-c3ccc([N+](=O)[O-])s3)s2)CC1 [CHEMBL518866]	–	–	Inactive	4.61
COc1cc(OC)c2c(C)[n+](-c3ccc(C(C)C)cc3C(C)C)c(C)cc2c1.F[B-](F)(F)F [CHEMBL519606]	Active	6.27	–	–
C[C@H]1COC2=C1C(=O)C(=O)c1c2ccc2c1C(=O)CCC2(C)C [CHEMBL519694]	–	–	Inactive	4.59
Cn1c([N+](=O)[O-])cnc1-c1nnc(N2CCN(C(=O)c3ccc(Br)s3)CC2)s1 [CHEMBL520309]	–	–	Inactive	4.80
COc1cc(OC)c2c(C)[n+](-c3ccc(Br)cc3)c(C)cc2c1.F[B-](F)(F)F [CHEMBL520594]	–	–	Inactive	4.71
COc1cc(OC)c2c(C)[n+](-c3ccc(C)cc3)c(C)cc2c1 [CHEMBL520612]	Active	5.58	–	–
COc1cc2c(c(OC)c1)C(C)N(c1cccc3ccccc13)C(C)C2 (stereo not drawn) [CHEMBL520770]	–	–	Inactive	4.18
Cn1c([N+](=O)[O-])cnc1-c1nnc(N2CCN(C(=O)c3ccc(Cl)cc3)CC2)s1 [CHEMBL520958]	–	–	Inactive	4.37
COc1cc(OC)c2c(C)[n+](-c3c(C)cccc3C)c(C)cc2c1.F[B-](F)(F)F [CHEMBL521247]	Active	5.46	–	–
Cn1c([N+](=O)[O-])cnc1-c1nnc(N2CCN(C(=O)c3ccc(Cl)s3)CC2)s1 [CHEMBL521458]	–	–	Active	5.03
C/C=C(\C)C(=O)NC1=CC[C@@]2(C)C(=CC[C@H]3[C@@H]4CC[C@H]([C@H](C)NC)[C@@]4(C)CC[C@@H]32)C1=O [CHEMBL525190]	–	–	Inactive	4.67
CCCCOc1ccc(-c2nc3ccccc3[nH]2)cc1 [CHEMBL531335]	Active	5.61	–	–
COc1cccc(C(=O)/C=C/c2ccc(-n3ccnc3)cc2)c1 [CHEMBL569119]	Active	5.49	–	–
O=C(/C=C/c1ccc(-n2ccnc2)cc1)c1ccccc1Br [CHEMBL569130]	Active	5.61	–	–
O=C(/C=C/c1ccc(-n2ccnc2)cc1)c1ccccc1Cl [CHEMBL569355]	Active	5.52	–	–
O=C(/C=C/c1ccc(-n2ccnc2)cc1)c1ccc(Cl)cc1 [CHEMBL569356]	Active	5.53	–	–
O=C(/C=C/c1ccc(-n2ccnc2)cc1)c1ccc(F)c(F)c1 [CHEMBL569571]	Active	5.54	–	–
O=C(/C=C/c1ccc(-n2ccnc2)cc1)c1ccc(F)cc1 [CHEMBL570258]	Active	5.61	–	–
O=C(/C=C/c1ccc(-n2ccnc2)cc1)c1ccc(I)cc1 [CHEMBL570445]	Active	5.64	–	–

Structure (SMILES)	Outcome (L. major [1]; [3])	pIC50 Value (L. major [2]; [4])	Outcome (L. major [1]; [5])	pIC50 Value (L. major [2]; [6])
COc1ccc(C(=O)/C=C/c2ccc(-n3ccnc3)cc2)cc1 [CHEMBL570461]	Active	5.49	–	–
COc1ccc(C(=O)/C=C/c2ccc(-n3ccnc3)cc2)cc1OC [CHEMBL570484]	Active	5.61	–	–
O=C(/C=C/c1ccc(-n2ccnc2)cc1)c1ccc(Br)cc1 [CHEMBL570693]	Active	5.61	–	–
O=C(/C=C/c1ccc(-n2ccnc2)cc1)c1ccc(Cl)c(Cl)c1 [CHEMBL570738]	Active	5.54	–	–
O=C(/C=C/c1ccc(-n2ccnc2)cc1)c1cc(Cl)ccc1Cl [CHEMBL570739]	Active	5.54	–	–
O=C(/C=C/c1ccc(-n2ccnc2)cc1)c1ccc(Cl)cc1Cl [CHEMBL570849]	Active	5.68	–	–
O=C(/C=C/c1ccc(-n2ccnc2)cc1)c1cccc(F)c1F [CHEMBL570959]	Active	5.57	–	–
O=C(/C=C/c1ccc(-n2ccnc2)cc1)c1c(F)cccc1F [CHEMBL570962]	Active	5.51	–	–
O=C(/C=C/c1ccc(-n2ccnc2)cc1)c1c(Cl)cccc1Cl [CHEMBL571070]	Active	5.71	–	–
O=C(/C=C/c1ccc(-n2ccnc2)cc1)c1ccccc1F [CHEMBL571071]	Active	5.47	–	–
O=C(/C=C/c1ccc(-n2ccnc2)cc1)c1ccccc1 [CHEMBL571178]	Active	5.48	–	–
O=C(/C=C/c1ccc(-n2ccnc2)cc1)c1cccc(O)c1 [CHEMBL571179]	Active	5.48	–	–
O=C(/C=C/c1ccc(-n2ccnc2)cc1)c1ccc(Cl)c(Cl)c1Cl [CHEMBL571575]	Active	5.78	–	–
CC[C@H](CO)Nc1nc(NCc2ccccc2O)c2ncn(C(C)C)c2n1 [CHEMBL1094304]	–	–	Inactive	4.33
COc1cc(C(=O)/C=C/C2=Cc3cc(Cl)ccc3OC2)cc(OC)c1OC [CHEMBL1094315]	Active	5.69	–	–
O=C(/C=C/c1ccccc1Br)C1=Cc2cc(Cl)ccc2OC1 [CHEMBL1094316]	Active	5.88	–	–
Cc1ccc(/C=C/C(=O)C2=Cc3cc(Cl)ccc3OC2)cc1 [CHEMBL1094967]	Active	5.56	–	–
COc1ccc(OC)c(/C=C/C(=O)C2=Cc3cc(Cl)ccc3OC2)c1 [CHEMBL1095286]	Active	5.52	–	–
COc1cccc(/C=C/C(=O)C2=Cc3cc(Cl)ccc3OC2)c1OC [CHEMBL1095287]	Active	5.55	–	–
O=C(/C=C/C1=Cc2cc(Cl)ccc2OC1)c1ccccc1F [CHEMBL1097964]	Active	5.65	–	–
O=C(/C=C/C1=Cc2cc(Cl)ccc2OC1)c1ccccc1Cl [CHEMBL1097965]	Active	5.91	–	–
O=C(/C=C/C1=Cc2cc(Cl)ccc2OC1)c1ccc(Cl)cc1Cl [CHEMBL1097966]	Active	5.72	–	–
O=[N+]([O-])c1ccc2nc(-c3ccccc3)[nH]c2c1 [CHEMBL1164403]	Active	5.48	–	–
O=CN/N=C/c1ccccc1O [CHEMBL1172261]	–	–	Inactive	3.84
C[C@]12CC[C@H](O)C[C@@H]1CC[C@@H]1[C@@H]2CC[C@@]2(C)[C@H]1CC[C@@H]2[C@@](C)(O)c1ccncc1 [CHEMBL1214241]	–	–	Inactive	4.92
C[C@]12CC[C@H](O)C[C@@H]1CC[C@@H]1[C@@H]2CC[C@@]2(C)[C@H]1CC[C@@H]2[C@@](C)(O)c1ccncc1Cl [CHEMBL1214242]	–	–	Active	5.10
CCC(=O)N1CCCCC1[C@](C)(O)[C@H]1CC[C@H]2[C@@H]3CC[C@H]4C[C@@H](O)CC[C@]4(C)[C@H]3CC[C@@]21C (stereo partly drawn) [CHEMBL1214310]	–	–	Inactive	4.27
